Assay results taken from ChEMBL document CHEMBL4420076, “Amylin and calcitonin receptor agonist” (2017).
Numbered stars: 1 amine (or outer) side, 2 acyl side, 3 side chain; on linkers, the order of the positions; unused ones are H or OH. Peptide text beside a SMILES is read from it. * marks the point of attachment. C20 diacid = O=C(O)CCCCCCCCCCCCCCCCCCC(=O)*; γGlu = O=C(O)[C@H](CCC(=O)[*:2])N[*:1]; AEEA = NCCOCCOCC(=O)O

Columns and labels:
Calcitonin receptor [1] = molecular target: T1, Calcitonin receptor (Homo sapiens, UniProt P30988); assay: Agonist activity at human calcitonin receptor expressed in BHK570 cells assessed as increase in intracellular cAMP concentration incubated for 3 hrs in absence of albumin by CRE luciferase reporter gene assay; format: functional, cell-based
T1 sequence (P30988 whole entry): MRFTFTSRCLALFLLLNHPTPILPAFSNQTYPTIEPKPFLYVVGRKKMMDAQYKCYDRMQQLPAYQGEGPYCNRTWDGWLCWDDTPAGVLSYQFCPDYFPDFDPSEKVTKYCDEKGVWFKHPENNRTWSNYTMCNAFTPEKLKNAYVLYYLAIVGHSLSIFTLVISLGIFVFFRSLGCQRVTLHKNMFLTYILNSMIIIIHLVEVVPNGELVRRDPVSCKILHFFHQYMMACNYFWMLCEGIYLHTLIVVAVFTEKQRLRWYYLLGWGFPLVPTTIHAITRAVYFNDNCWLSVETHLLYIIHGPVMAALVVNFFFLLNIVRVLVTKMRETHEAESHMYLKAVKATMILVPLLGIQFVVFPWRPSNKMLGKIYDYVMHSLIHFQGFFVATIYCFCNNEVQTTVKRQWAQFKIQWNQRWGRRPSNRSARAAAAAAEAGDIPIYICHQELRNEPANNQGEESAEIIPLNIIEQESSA

[2] = molecular target: T2, Amylin receptor AMY3; CALCR/RAMP3 (Homo sapiens, UniProt O60896+P30988); assay: Agonist activity at human amylin receptor expressed in BHK570 cells co-expressing RAMP3 assessed as increase in intracellular cAMP concentration incubated for 3 hrs in presence of 10% FBS by CRE luciferase reporter gene assay; format: functional, cell-based
T2 sequence (P30988 whole entry): T1 sequence (P30988 whole entry)
T2 sequence (O60896 whole entry): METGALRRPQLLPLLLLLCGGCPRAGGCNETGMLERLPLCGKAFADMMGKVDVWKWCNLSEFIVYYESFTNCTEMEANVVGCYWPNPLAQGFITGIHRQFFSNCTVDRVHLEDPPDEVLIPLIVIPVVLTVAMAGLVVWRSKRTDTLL

Calcitonin receptor [3] = molecular target: T1, Calcitonin receptor; assay: Agonist activity at human calcitonin receptor expressed in BHK570 cells assessed as increase in intracellular cAMP concentration incubated for 3 hrs in presence of 10% FBS by CRE luciferase reporter gene assay; format: functional, cell-based
[4] = Stability in pH 7.5 buffer assessed as lag time for fibril formation at 1 uM by Thioflavin T based fluorescence assay; format: physicochemical; conditions: pH 7.5, 1 µM
[5] = Stability in pH 7.5 buffer assessed as compound recovery at 1 uM by Thioflavin T based fluorescence assay; format: physicochemical; conditions: read-out: Drug recovery
[6] = Solubility in 100 mM glycylglycine buffer at pH 3.0 incubated for 18 hrs by UPLC analysis; format: physicochemical
[7] = Solubility in 100 mM glycylglycine buffer at pH 4.0 incubated for 18 hrs by UPLC analysis; format: physicochemical
[8] = Solubility in 100 mM bistrispropane buffer at pH 6.0 incubated for 18 hrs by UPLC analysis; format: physicochemical
[9] = Solubility in 100 mM glycylglycine buffer at pH 5.0 incubated for 18 hrs by UPLC analysis; format: physicochemical
[10] = Solubility in 100 mM bistrispropane buffer at pH 6.5 incubated for 18 hrs by UPLC analysis; format: physicochemical
[11] = Solubility in 100 mM bistrispropane buffer at pH 7.0 incubated for 18 hrs by UPLC analysis; format: physicochemical
[12] = Solubility in 100 mM bistrispropane buffer at pH 7.5 incubated for 18 hrs by UPLC analysis; format: physicochemical
[13] = Solubility in 100 mM bistrispropane buffer at pH 8.0 incubated for 18 hrs by UPLC analysis; format: physicochemical
[14] = molecular target: T2, Amylin receptor AMY3; CALCR/RAMP3; assay: Agonist activity at human amylin receptor expressed in BHK570 cells co-expressing RAMP3 assessed as increase in intracellular cAMP concentration incubated for 3 hrs in absence of albumin by CRE luciferase reporter gene assay; format: functional, cell-based
[15] = molecular target: T2, Amylin receptor AMY3; CALCR/RAMP3; assay: Displacement of [125I]-labeled rat amylin from human amylin receptor expressed in BHK tkts13 whole cells co-expressing RAMP3 incubated for 60 mins by scintillation proximity assay; format: cell-based

Structure (SMILES) | EC50 (Calcitonin receptor [1]) [pM] | EC50 [2] [pM] | EC50 (Calcitonin receptor [3]) [pM] | Time [4] [h] | remaining at 1 µM [5] [%] | solubility at 18 h [6] [µM] | solubility at 18 h [7] [µM] | solubility at 18 h [8] [µM] | solubility at 18 h [9] [µM] | solubility at 18 h [10] [µM] | solubility at 18 h [11] [µM] | solubility at 18 h [12] [µM] | solubility at 18 h [13] [µM] | EC50 [14] [pM] | IC50 [15] [pM]
CC(C)C[C@H](NC(=O)[C@H](C)NC(=O)[C@H](C)NC(=O)[C@@H](NC(=O)[C@H](CO)NC(=O)[C@H](CC(C)C)NC(=O)[C@H](CCC(=O)O)NC(=O)[C@H](CO)NC(=O)[C@H](C)NC(=O)COCCOCCNC(=O)COCCOCCNC(=O)COCCOCCNC(=O)COCCOCCNC(=O)CC[C@H](NC(=O)CCCCCCCCCCCCCCCCCCC(=O)O)C(=O)O)[C@@H](C)O)C(=O)NCC(=O)N[C@@H](CCCNC(=N)N)C(=O)N[C@@H](CC(C)C)C(=O)N[C@@H](CO)C(=O)N[C@@H](C)C(=O)N[C@@H](CCC(=O)O)C(=O)N[C@@H](CC(C)C)C(=O)N[C@@H](Cc1cnc[nH]1)C(=O)N[C@@H](CCC(=O)O)C(=O)N[C@@H](CC(C)C)C(=O)N[C@@H](C)C(=O)N[C@H](C(=O)N[C@@H](CC(C)C)C(=O)N1CCC[C@H]1C(=O)N[C@@H](CCCNC(=N)N)C(=O)N[C@H](C(=O)N[C@@H](CCC(=O)O)C(=O)N[C@H](C(=O)NCC(=O)N[C@@H](CO)C(=O)NCC(=O)N[C@@H](CO)C(=O)N1CCC[C@H]1C(N)=O)[C@@H](C)O)[C@@H](C)O)[C@@H](C)O ({C20 diacid-γGlu-AEEA-AEEA-AEEA-AEEA}-ASELSTAALGRLSAELHELATLPRTETGSGSP-NH2) | 13 | 62 | 25 | > 45 | 100 | ≥ 200 | ≥ 200 | ≥ 200 | ≥ 200 | ≥ 200 | ≥ 200 | ≥ 200 | ≥ 200 |  | 
CC(C)C[C@H](NC(=O)[C@H](C)NC(=O)[C@H](C)NC(=O)[C@@H](NC(=O)[C@H](CO)NC(=O)[C@H](CC(C)C)NC(=O)[C@H](CCC(=O)O)NC(=O)[C@H](CO)NC(=O)[C@H](C)NC(=O)CC[C@H](NC(=O)CCCCCCCCCCCCCCCCCCC(=O)O)C(=O)O)[C@@H](C)O)C(=O)NCC(=O)N[C@@H](CCCNC(=N)N)C(=O)N[C@@H](CC(C)C)C(=O)N[C@@H](CO)C(=O)N[C@@H](C)C(=O)N[C@@H](CCC(=O)O)C(=O)N[C@@H](CC(C)C)C(=O)N[C@@H](Cc1cnc[nH]1)C(=O)N[C@@H](CCC(=O)O)C(=O)N[C@@H](CC(C)C)C(=O)N[C@@H](C)C(=O)N[C@H](C(=O)N[C@@H](CC(C)C)C(=O)N1CCC[C@H]1C(=O)N[C@@H](CCCNC(=N)N)C(=O)N[C@H](C(=O)N[C@@H](CCC(=O)O)C(=O)N[C@H](C(=O)NCC(=O)N[C@@H](CO)C(=O)NCC(=O)N[C@@H](CO)C(=O)N[C@@H](C)C(N)=O)[C@@H](C)O)[C@@H](C)O)[C@@H](C)O ({C20 diacid-γGlu}-ASELSTAALGRLSAELHELATLPRTETGSGSA-NH2) | 40 |  | 102 | > 45 | 100 | ≥ 200 | ≥ 200 | ≥ 200 | ≥ 200 | ≥ 200 | ≥ 200 | ≥ 200 | ≥ 200 | 67 | 1890

The remaining lines, values ahead:

EC50 (Calcitonin receptor [1]) [pM] | EC50 [2] [pM] | EC50 (Calcitonin receptor [3]) [pM] | Time [4] [h] | remaining at 1 µM [5] [%] | solubility at 18 h [6] [µM] | solubility at 18 h [7] [µM] | solubility at 18 h [8] [µM] | solubility at 18 h [9] [µM] | solubility at 18 h [10] [µM] | solubility at 18 h [11] [µM] | solubility at 18 h [12] [µM] | solubility at 18 h [13] [µM] | EC50 [14] [pM] | IC50 [15] [pM] | Structure (SMILES)
31 |  |  | > 45 | 100 | ≥ 200 | ≥ 200 | ≥ 200 | ≥ 200 | ≥ 200 | ≥ 200 | ≥ 200 | ≥ 200 |  | 3050 | CC(C)C[C@H](NC(=O)[C@H](CO)NC(=O)CNC(=O)[C@H](CO)NC(=O)CNC(=O)[C@@H](NC(=O)[C@H](CCC(=O)O)NC(=O)[C@@H](NC(=O)[C@H](CCCNC(=N)N)NC(=O)[C@@H]1CCCN1C(=O)[C@H](CC(C)C)NC(=O)[C@@H](NC(=O)[C@H](C)NC(=O)[C@H](CC(C)C)NC(=O)[C@H](CCC(=O)O)NC(=O)[C@H](Cc1cnc[nH]1)NC(=O)[C@H](CC(C)C)NC(=O)[C@H](CCC(=O)O)NC(=O)[C@H](C)NC(=O)[C@H](CO)NC(=O)[C@H](CC(C)C)NC(=O)[C@H](CCCNC(=N)N)NC(=O)CNC(=O)[C@H](CC(C)C)NC(=O)[C@H](C)NC(=O)[C@H](C)NC(=O)[C@@H](NC(=O)[C@H](CO)NC(=O)[C@H](CC(C)C)NC(=O)[C@H](CCC(=O)O)NC(=O)[C@H](CO)NC(=O)[C@H](C)NC(=O)CC[C@H](NC(=O)CCCCCCCCCCCCCCCCCCC(=O)O)C(=O)O)[C@@H](C)O)[C@@H](C)O)[C@@H](C)O)[C@@H](C)O)C(N)=O ({C20 diacid-γGlu}-ASELSTAALGRLSAELHELATLPRTETGSGSL-NH2)
38 |  | 154 | > 45 | 100 | ≥ 200 | ≥ 200 | ≥ 200 | ≥ 200 | ≥ 200 | ≥ 200 | ≥ 200 | ≥ 200 | 63 | 4070 | CC(C)C[C@H](NC(=O)[C@H](C)NC(=O)[C@H](C)NC(=O)[C@@H](NC(=O)[C@H](CO)NC(=O)[C@H](CC(C)C)NC(=O)[C@H](CCC(=O)O)NC(=O)[C@H](CO)NC(=O)[C@H](C)NC(=O)CC[C@H](NC(=O)CCCCCCCCCCCCCCCCCCC(=O)O)C(=O)O)[C@@H](C)O)C(=O)NCC(=O)N[C@@H](CCCNC(=N)N)C(=O)N[C@@H](CC(C)C)C(=O)N[C@@H](CO)C(=O)N[C@@H](C)C(=O)N[C@@H](CCC(=O)O)C(=O)N[C@@H](CC(C)C)C(=O)N[C@@H](Cc1cnc[nH]1)C(=O)N[C@@H](CCC(=O)O)C(=O)N[C@@H](CC(C)C)C(=O)N[C@@H](C)C(=O)N[C@H](C(=O)N[C@@H](CC(C)C)C(=O)N1CCC[C@H]1C(=O)N[C@@H](CCCNC(=N)N)C(=O)N[C@H](C(=O)N[C@@H](CCC(=O)O)C(=O)N[C@H](C(=O)NCC(=O)N[C@@H](CO)C(=O)NCC(=O)N[C@@H](CO)C(=O)N[C@@H](CO)C(N)=O)[C@@H](C)O)[C@@H](C)O)[C@@H](C)O ({C20 diacid-γGlu}-ASELSTAALGRLSAELHELATLPRTETGSGSS-NH2)
 | 67 | 36 | 1 | 16 | ≥ 200 | ≥ 200 | ≥ 200 |  | ≥ 200 | ≥ 200 | ≥ 200 | ≥ 200 | 62 |  | CC(C)C[C@H](NC(=O)[C@H](CCCNC(=N)N)NC(=O)CNC(=O)[C@H](CC(C)C)NC(=O)[C@@H](NC(=O)[C@H](C)NC(=O)[C@@H](NC(=O)[C@H](CO)NC(=O)[C@H](CC(C)C)NC(=O)[C@H](CCC(N)=O)NC(=O)[C@H](CO)NC(=O)[C@H](C)NC(=O)CC[C@H](NC(=O)CCCCCCCCCCCCCCCCCCC(=O)O)C(=O)O)[C@@H](C)O)C(C)C)C(=O)N[C@@H](CO)C(=O)N[C@@H](CCC(N)=O)C(=O)N[C@@H](CCC(=O)O)C(=O)N[C@@H](CC(C)C)C(=O)N[C@@H](Cc1cnc[nH]1)C(=O)N[C@@H](CCC(=O)O)C(=O)N[C@@H](CC(C)C)C(=O)N[C@@H](CCC(N)=O)C(=O)N[C@H](C(=O)N[C@@H](Cc1ccc(O)cc1)C(=O)N1CCC[C@H]1C(=O)N[C@@H](CCCNC(=N)N)C(=O)N[C@H](C(=O)N[C@@H](CCC(=O)O)C(=O)N[C@H](C(=O)NCC(=O)N[C@@H](CO)C(=O)N[C@@H](CCC(N)=O)C(=O)N[C@H](C(=O)N[C@@H](Cc1ccc(O)cc1)C(N)=O)[C@@H](C)O)[C@@H](C)O)[C@@H](C)O)[C@@H](C)O ({C20 diacid-γGlu}-ASQLSTAVLGRLSQELHELQTYPRTETGSQTY-NH2)
